Reference: patent US4335249A, “Herbicidal diphenyl ethers, sulfides, sulfoxides and sulfones” (Rohm and Haas Company, priority 1976, dated 1982)

How the values were obtained:
Assay type in all cases: in vivo
[1] = test system: barnyardgrass (Echinochloa crusgalli); test: Postemergence herbicidal activity, barnyardgrass; conditions: Post
Summary of the method: (§1)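 Acetone solution diluted w/ water; spray, carrier 50 gal/acre equivalent; rate in lb/A. Pre: flats sprayed right after sowing. Post: sprayed 2 wk after germination. Weed control scored.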

[2] = test system: cocklebur (Xanthium pensylvanicum); test: Preemergence herbicidal activity, cocklebur
Summary of the method: (§2)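 Acetone-dissolved compound, water-diluted, sprayed over soil flats at 50 gallons/acre carrier and lb/A rates; pre- vs postemergence timing is at planting vs two weeks after germination. Evaluation ~two weeks post-spray, expressed as mean percentage of plants dead.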

[3] = test system: barnyardgrass (Echinochloa crusgalli); test: Preemergence herbicidal activity, barnyardgrass; conditions: Pre
Summary of the method: as §1

[4] = test system: downybrome (Bromus tectorum); test: Postemergence herbicidal activity, downybrome; conditions: Post
Summary of the method: as §2

[5] = test system: tomato (Lycopersicon esculentum); test: Preemergence herbicidal activity, tomato; conditions: Pre
Summary of the method: as §2

wild oats (Avena fatua) [6] = test: Postemergence herbicidal activity, wild oats; conditions: Post
Summary of the method: as §2

[7] = test system: downybrome (Bromus tectorum); test: Preemergence herbicidal activity, downybrome; conditions: Pre
Summary of the method: as §2

[8] = test system: cocklebur (Xanthium pensylvanicum); test: Postemergence herbicidal activity, cocklebur
Summary of the method: as §2

foxtail (Setaria spp.) [9] = test: Postemergence herbicidal activity, foxtail; conditions: Post
Summary of the method: as §2

[10] = test system: morningglory (Ipomoca spp.); test: Preemergence herbicidal activity, morningglory
Summary of the method: as §2

[11] = test system: yellow nutsedge (Cyperus esculentus); test: Preemergence herbicidal activity, yellow nutsedge
Summary of the method: as §2

[12] = test system: velvetleaf (Abutilon theophrasti); test: Postemergence herbicidal activity, velvetleaf
Summary of the method: as §1

wild oats (Avena fatua) [13] = test: Preemergence herbicidal activity, wild oats; conditions: Pre
Summary of the method: as §2

foxtail (Setaria spp.) [14] = test: Preemergence herbicidal activity, foxtail; conditions: Pre
Summary of the method: as §2

[15] = test system: morningglory (Ipomoca spp.); test: Postemergence herbicidal activity, morningglory
Summary of the method: as §2

marigold (Tagetes spp.) [16] = test: Preemergence herbicidal activity, marigold
Summary of the method: as §2

[17] = test system: tomato (Lycopersicon esculentum); test: Postemergence herbicidal activity, tomato; conditions: Post
Summary of the method: as §2

[18] = test system: yellow nutsedge (Cyperus esculentus); test: Postemergence herbicidal activity, yellow nutsedge
Summary of the method: as §2

[19] = test system: velvetleaf (Abutilon theophrasti); test: Preemergence herbicidal activity, velvetleaf; conditions: Pre
Summary of the method: as §2

marigold (Tagetes spp.) [20] = test: Postemergence herbicidal activity, marigold
Summary of the method: as §2

[21] = Echinochloa crus-galli, post-emergence, 336 h, 2 lb/A
[22] = Xanthium strumarium, pre-emergence, 336 h, 2 lb/A
[23] = Echinochloa crus-galli, pre-emergence, 336 h, 2 lb/A
[24] = Bromus tectorum, post-emergence, 336 h, 2 lb/A
[25] = Solanum lycopersicum, pre-emergence, 336 h, 2 lb/A
[26] = Avena fatua, post-emergence, 336 h, 2 lb/A, read-out: % control, Wild oat
[27] = Bromus tectorum, pre-emergence, 336 h, 2 lb/A
[28] = Xanthium strumarium, post-emergence, 336 h, 2 lb/A
[29] = Setaria, post-emergence, 336 h, 2 lb/A
[30] = Ipomoea, pre-emergence, 336 h, 2 lb/A
[31] = Cyperus, pre-emergence, 336 h, 2 lb/A
[32] = Abutilon theophrasti, post-emergence, 336 h, 2 lb/A
[33] = Avena fatua, pre-emergence, 336 h, 2 lb/A, read-out: % control, Wild oat
[34] = Setaria, pre-emergence, 336 h, 2 lb/A
[35] = Ipomoea, post-emergence, 336 h, 2 lb/A
[36] = Solanum lycopersicum, post-emergence, 336 h, 2 lb/A
[37] = Cyperus, post-emergence, 336 h, 2 lb/A
[38] = Abutilon theophrasti, pre-emergence, 336 h, 2 lb/A

Row | SMILES | pest or weed control at 2241.7 g/ha [1, 21] | pest or weed control at 2241.7 g/ha [2, 22] | pest or weed control at 2241.7 g/ha [3, 23] | pest or weed control at 2241.7 g/ha [4, 24] | pest or weed control at 2241.7 g/ha [5, 25] | pest or weed control at 2241.7 g/ha (wild oats (Avena fatua) [6]; [26]) | pest or weed control at 2241.7 g/ha [7, 27] | pest or weed control at 2241.7 g/ha [8, 28] | pest or weed control at 2241.7 g/ha (foxtail (Setaria spp.) [9]; [29]) | pest or weed control at 2241.7 g/ha [10, 30] | pest or weed control at 2241.7 g/ha [11, 31] | pest or weed control at 2241.7 g/ha [12, 32] | pest or weed control at 2241.7 g/ha (wild oats (Avena fatua) [13]; [33]) | pest or weed control at 2241.7 g/ha (foxtail (Setaria spp.) [14]; [34]) | pest or weed control at 2241.7 g/ha [15, 35] | pest or weed control at 2241.7 g/ha (marigold (Tagetes spp.) [16]; pre-emergence, 336 h, 2 lb/A) | pest or weed control at 2241.7 g/ha [17, 36] | pest or weed control at 2241.7 g/ha [18, 37] | pest or weed control at 2241.7 g/ha [19, 38] | pest or weed control at 2241.7 g/ha (marigold (Tagetes spp.) [20]; post-emergence, 336 h, 2 lb/A) | other results
1 | CCOC(=O)C(Oc1ccc(Oc2ccc(C(F)(F)F)cc2Cl)cc1)C(C)C (stereo not shown) [Example 28] | 60% | 0% | 95% | 20% | 0% | 60% | 30% | 0% | 99% | 70% | 0% | 0% | 0% | 90% | 0% | 0% | 0% | 0% | 0% | 0% | 
2 | CCOC(=O)C(C)Oc1ccc(Sc2ccc(C(F)(F)F)cc2)cc1 (stereo not shown) [Example 46] |  |  |  |  |  |  |  |  |  |  |  |  |  |  |  |  |  |  |  |  | pest or weed control at 4483.4 g/ha ([1]; Echinochloa crus-galli, post-emergence, 336 h, 4 lb/A): 50%; pest or weed control at 8966.8 g/ha ([2]; Xanthium strumarium, pre-emergence, 336 h, 8 lb/A): 0%; pest or weed control at 8966.8 g/ha ([3]; Echinochloa crus-galli, pre-emergence, 336 h, 8 lb/A): 70%; pest or weed control at 4483.4 g/ha ([4]; Bromus tectorum, post-emergence, 336 h, 4 lb/A): 30%; pest or weed control at 8966.8 g/ha ([5]; Solanum lycopersicum, pre-emergence, 336 h, 8 lb/A): 0%; pest or weed control at 4483.4 g/ha (wild oats (Avena fatua) [6]; Avena fatua, post-emergence, 336 h, 4 lb/A, read-out: % control, Wild oat): 20%; pest or weed control at 8966.8 g/ha ([7]; Bromus tectorum, pre-emergence, 336 h, 8 lb/A): 50%; pest or weed control at 4483.4 g/ha ([8]; Xanthium strumarium, post-emergence, 336 h, 4 lb/A): 0%; pest or weed control at 4483.4 g/ha (foxtail (Setaria spp.) [9]; Setaria, post-emergence, 336 h, 4 lb/A): 30%; pest or weed control at 8966.8 g/ha ([10]; Ipomoea, pre-emergence, 336 h, 8 lb/A): 0%; pest or weed control at 8966.8 g/ha ([11]; Cyperus, pre-emergence, 336 h, 8 lb/A): 0%; pest or weed control at 4483.4 g/ha ([12]; Abutilon theophrasti, post-emergence, 336 h, 4 lb/A): 0%; pest or weed control at 8966.8 g/ha (wild oats (Avena fatua) [13]; Avena fatua, pre-emergence, 336 h, 8 lb/A, read-out: % control, Wild oat): 0%; pest or weed control at 8966.8 g/ha (foxtail (Setaria spp.) [14]; Setaria, pre-emergence, 336 h, 8 lb/A): 70%; pest or weed control at 4483.4 g/ha ([15]; Ipomoea, post-emergence, 336 h, 4 lb/A): 0%; pest or weed control at 8966.8 g/ha (marigold (Tagetes spp.) [16]; pre-emergence, 336 h, 8 lb/A): 0%; pest or weed control at 4483.4 g/ha ([17]; Solanum lycopersicum, post-emergence, 336 h, 4 lb/A): 80%; pest or weed control at 4483.4 g/ha ([18]; Cyperus, post-emergence, 336 h, 4 lb/A): 0%; pest or weed control at 8966.8 g/ha ([19]; Abutilon theophrasti, pre-emergence, 336 h, 8 lb/A): 0%; pest or weed control at 4483.4 g/ha (marigold (Tagetes spp.) [20]; post-emergence, 336 h, 4 lb/A): 0%
3 | C=CCOC(=O)C(C)Oc1ccc(Oc2ccc(C(F)(F)F)cc2Cl)cc1 (stereo not shown) [Example 24] | 100% | 100% | 100% | 100% | 0% | 100% | 99% | 20% | 100% | 0% | 30% | 80% | 80% | 100% | 20% | 0% | 95% | 0% | 0% | 50% | 
4 | CCOC(=O)C(C)Oc1ccc(Sc2ccc(C(F)(F)F)cc2C#N)cc1 (stereo not shown) [Example 47] | 100% | 0% | 100% | 99% | 0% | 99% | 40% | 0% | 99% | 0% | 0% | 0% | 100% | 95% | 0% | 0% | 0% | 0% | 0% | 0% | 
5 | COC(=O)C(C)Oc1ccc(Oc2ccc(C(F)(F)F)cc2Cl)cc1 (stereo not shown) [Example 4, Methyl 2-[4-(2-chloro-4-trifluoromethylphenoxy)phenoxy] propionate] | 100% | 0% | 100% | 99% | 0% | 100% | 0% | 100% | 100% | 0% | 0% | 80% | 40% | 100% | 20% | 0% | 60% | 0% | 20% | 30% | 
6 | CCOC(=O)C(C)Oc1ccc(Oc2ccc(C(F)(F)F)cc2Cl)cc1Cl (stereo not shown) [Example 7] | 10% | 0% | 0% | 0% | 0% | 20% | 0% | 80% | 40% | 0% | 0% | 80% | 0% | 90% | 100% | 0% | 80% | 0% | 0% | 20% | 
7 | CC(Oc1ccc(Oc2ccc(C(F)(F)F)cc2Cl)cc1)C(=O)O (stereo not shown) [Example 14, Sodium 2-[4-(2-chloro-4-trifluoromethylphenoxy)phenoxy] propionate] |  |  |  |  |  |  |  |  |  |  |  |  |  |  |  |  |  |  |  |  | % control, Barnyardgrass ([1]; 2 lb/A): 100%; % control, Cocklebur ([2]; Pre, 2 lb/A): 0%; % control, Barnyardgrass ([3]; 2 lb/A): 100%; % control, Downybrome ([4]; 2 lb/A): 20%; % control, Tomato ([5]; 2 lb/A): 0%; % control, Wild oat (wild oats (Avena fatua) [6]; 2 lb/A): 80%; % control, Downybrome ([7]; 2 lb/A): 50%; % control, Cocklebur ([8]; Post, 2 lb/A): 0%; % control, Foxtail (foxtail (Setaria spp.) [9]; 2 lb/A): 95%; % control, Morningglory ([10]; Pre, 2 lb/A): 0%; % control, Nutsedge ([11]; Pre, 2 lb/A): 0%; % control, Velvetleaf ([12]; Post, 2 lb/A): 0%; % control, Wild oat (wild oats (Avena fatua) [13]; 2 lb/A): 40%; % control, Foxtail (foxtail (Setaria spp.) [14]; 2 lb/A): 100%; % control, Morningglory ([15]; Post, 2 lb/A): 0%; % control, Marigold (marigold (Tagetes spp.) [16]; Pre, 2 lb/A): 0%; % control, Tomato ([17]; 2 lb/A): 0%; % control, Nutsedge ([18]; Post, 2 lb/A): 0%; % control, Velvetleaf ([19]; 2 lb/A): 0%; % control, Marigold (marigold (Tagetes spp.) [20]; Post, 2 lb/A): 0%
8 | CCOC(=O)CCC(C)Oc1ccc(Oc2ccc(C(F)(F)F)cc2)cc1 (stereo not shown) [Example 39] | 100% | 0% | 99% | 100% | 0% | 100% | 60% | 60% | 100% | 0% | 0% | 0% | 50% | 99% | 40% | 0% | 20% | 0% | 0% | 0% | 
